Converted amounts (≈) assume the structure as drawn. Read-outs that look alike come from different tables or passages of the source.
Legend:
[1] = HPLC measurement of the solubility of the anti-estrogen in an aqueous solution of 2-hydroxypropyl cyclodextrin; type: physicochemical; conditions: room temperature; for solubility: read-out: Toremifene solubility (mg of toremifene / ml of cyclodextrin-water soln.)
Method: A weighed amount of 2-hydroxypropyl cyclodextrin was dissolved into distilled water by shaking with a shaker. The so formed clear solution was equilibrated with a large excess of antiestrogen at the boiling point. […] The solution was kept overnight at room temperature and the excess of precipitated antiestrogen was removed by centrifugation.
The separations were carried out at room temperature on a 35 * 4.6 mm stainless steel column (packed with 3-μm spherical octadecylsilanebonded silica particles; HS-3 C-18, (Perkin-Elmer, USA)
The mobile phase consisted of a mixture of acetonitrile: 0.05 M aqueous phosphate buffer containing 0.004 M of dimethyloctyl amine with a pH of 7.4. The flow rate was 0.8 ml/min.

[2] = Toremifene concentration in emulsion (Emulsan 20%) after filtration, spectrophotometric at 278 nm; type: physicochemical; conditions: for Concentration after filtration: toremifene citrate in Emulsan 20%
Method: Emulsions prepared by dissolving the drug in a commercial fat emulsion.
The commercial fat emulsion used was Emulsan®20% (manufacturer Leiras-Kabi Infusion Ltd., Finland). […] The toremifene concentrations were 10 mg/ml, 14 mg/ml and 20 mg/ml. After the homogenization the samples were filtered through the 0.2 μm, 0.45 μm and 1.2 μm filters.
The concentration of toremifene was determined from the filtrate with a spectrofotometric method using the wave length of 278 nm. The samples were dissolved in methanol and diluted in the concentration of 0.02 mg/ml.

[3] = tested on: multidrug resistance; conditions: high vs low plasma concentrations; J Clinical Oncology 1989; cited from earlier work

Row | Desmethyl toremifene solubility (ml of desmethyl toremifene / ml of cyclodextrin-water soln.) ([1]; 125 mg β-HPC/ml of aqueous soln.) | Compound | solubility ([1]; aqueous 2-hydroxypropyl cyclodextrin solution, 500 mg β-HPC/ml of aqueous soln.) | solubility ([1]; aqueous β-hpc solution, 25 mg/ml, 25 mg β-HPC/ml of aqueous soln.) | solubility ([1]; aqueous β-hpc solution, 63 mg/ml, 63 mg β-HPC/ml of aqueous soln.) | solubility ([1]; aqueous β-hpc solution, 125 mg/ml, 125 mg β-HPC/ml of aqueous soln.) | solubility ([1]; aqueous β-hpc solution, 250 mg/ml, 250 mg β-HPC/ml of aqueous soln.) | solubility ([1]; aqueous γ-hpc solution, 125 mg/ml, 125 mg Γ-HPC/ml of aqueous soln.) | solubility ([1]; aqueous γ-hpc solution, 250 mg/ml, 250 mg Γ-HPC/ml of aqueous soln.) | solubility ([1]; aqueous γ-hpc solution, 500 mg/ml, 500 mg Γ-HPC/ml of aqueous soln.) | solubility ([1]; water, 0 mg β-HPC/ml of aqueous soln.) | Concentration after filtration ([2]; 10 mg/ml before filtration, 0.2 μm filter) | Concentration after filtration ([2]; 10 mg/ml before filtration, 0.45 μm filter) | Concentration after filtration ([2]; 10 mg/ml before filtration, 1.2 μm filter) | Concentration after filtration ([2]; 14 mg/ml before filtration, 0.45 μm filter) | Concentration after filtration ([2]; 14 mg/ml before filtration, 1.2 μm filter) | Concentration after filtration ([2]; 20 mg/ml before filtration, 0.45 μm filter) | Concentration after filtration ([2]; 20 mg/ml before filtration, 1.2 μm filter) | solubility of toremifene by encapsulating in an emulsion droplet ([2]; emulsion droplet) | reversing multidrug resistance [3]
1 | – | CN(C)CCOc1ccc(/C(=C(/CCCl)c2ccccc2)c2ccccc2)cc1 [toremifene] | 87.7 mg/mL (≈ 216 mM) | 7.4 mg/mL (≈ 18.2 mM) | 14.1 mg/mL (≈ 34.7 mM) | 21.7 mg/mL (≈ 53.5 mM) | 53 mg/mL (≈ 131 mM) | 36.3 mg/mL (≈ 89.4 mM) | 61.1 mg/mL (≈ 151 mM) | 125 mg/mL (≈ 309 mM) | 0.3 mg/mL (≈ 0.739 mM) | 4400 µg/mL | 4000 µg/mL | 4400 µg/mL | 4300 µg/mL | 3700 µg/mL | 3600 µg/mL | 3600 µg/mL | can be increased considerably | more effective in reversing multidrug resistance than low concentrations
2 | 21 mg/mL | CNCCOc1ccc(/C(=C(/CCCl)c2ccccc2)c2ccccc2)cc1 [desmethyl toremifene] | – | – | – | – | – | – | – | – | – | – | – | – | – | – | – | – | – | –
